According to paper PMC2362861, “Potent interaction of flavopiridol with MRP1” (British Journal of Cancer, 1999):
Read-outs that look alike come from different tables or passages of the source.

Legend:
MRP1 ATPase activity = molecular target: T1, MRP1 ATPase activity (Homo sapiens, UniProt P33527); experiment: ATPase activity of GLC4/ADR plasma membranes (colourimetric inorganic phosphate); type: biochemical
T1 construct: plasma membrane vesicles prepared from the MRP1 overexpressing cell line GLC4/ADR; endogenous in cells; host or cells: GLC4/ADR (adriamycin-selected human small-cell lung cancer subline); plasma membrane vesicles
T1 sequence (P33527 whole entry): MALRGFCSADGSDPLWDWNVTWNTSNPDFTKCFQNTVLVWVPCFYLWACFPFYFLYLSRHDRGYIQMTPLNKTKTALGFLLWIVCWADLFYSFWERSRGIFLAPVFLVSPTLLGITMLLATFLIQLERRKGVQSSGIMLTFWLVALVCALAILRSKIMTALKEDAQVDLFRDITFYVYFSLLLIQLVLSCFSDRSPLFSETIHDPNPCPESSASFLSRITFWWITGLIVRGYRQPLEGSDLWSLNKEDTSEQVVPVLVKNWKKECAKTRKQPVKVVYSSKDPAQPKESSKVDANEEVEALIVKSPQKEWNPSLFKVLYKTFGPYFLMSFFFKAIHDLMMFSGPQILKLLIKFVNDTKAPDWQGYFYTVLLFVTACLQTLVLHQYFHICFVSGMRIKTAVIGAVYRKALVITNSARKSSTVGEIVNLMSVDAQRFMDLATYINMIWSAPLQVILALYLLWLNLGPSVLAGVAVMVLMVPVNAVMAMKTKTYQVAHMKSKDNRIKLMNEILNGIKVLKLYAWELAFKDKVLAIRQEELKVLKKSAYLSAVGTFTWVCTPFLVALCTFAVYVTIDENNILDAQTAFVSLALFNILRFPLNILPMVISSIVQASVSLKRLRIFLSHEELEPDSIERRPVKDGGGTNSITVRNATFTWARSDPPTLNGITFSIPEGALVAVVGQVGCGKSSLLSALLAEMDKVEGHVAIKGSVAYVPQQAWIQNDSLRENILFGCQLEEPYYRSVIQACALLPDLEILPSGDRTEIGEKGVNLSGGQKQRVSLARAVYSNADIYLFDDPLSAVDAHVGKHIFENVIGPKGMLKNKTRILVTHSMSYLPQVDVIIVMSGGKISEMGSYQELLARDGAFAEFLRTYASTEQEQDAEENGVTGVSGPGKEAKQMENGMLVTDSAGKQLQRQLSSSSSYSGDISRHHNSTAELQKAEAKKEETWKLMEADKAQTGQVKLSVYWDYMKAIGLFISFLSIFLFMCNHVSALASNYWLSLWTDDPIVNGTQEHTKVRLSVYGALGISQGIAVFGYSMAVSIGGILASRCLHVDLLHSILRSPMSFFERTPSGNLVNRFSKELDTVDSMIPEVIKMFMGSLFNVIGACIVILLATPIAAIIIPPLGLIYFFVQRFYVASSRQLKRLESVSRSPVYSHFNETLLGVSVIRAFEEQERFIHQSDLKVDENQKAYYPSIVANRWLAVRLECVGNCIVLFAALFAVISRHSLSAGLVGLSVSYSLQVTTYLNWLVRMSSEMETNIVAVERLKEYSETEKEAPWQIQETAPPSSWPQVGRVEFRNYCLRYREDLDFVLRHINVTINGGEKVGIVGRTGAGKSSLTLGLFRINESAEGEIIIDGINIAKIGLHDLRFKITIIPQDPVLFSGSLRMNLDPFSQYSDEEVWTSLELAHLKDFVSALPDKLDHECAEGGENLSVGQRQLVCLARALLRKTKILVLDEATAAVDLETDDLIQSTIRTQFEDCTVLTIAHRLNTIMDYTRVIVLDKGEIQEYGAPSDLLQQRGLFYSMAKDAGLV
Excerpt: One form of cellular resistance, directed against a wide spectrum of natural agents, is referred to as multidrug resistance (MDR). […] The ATP-dependent transport of anticancer drugs out of tumour cells that express MDR proteins may at least theoretically lead to impaired treatment outcome of patients. […] 1-Chloro-2,4-dinitrobenzene (CDNB) was from Sigma (St Louis, MO, USA). […] The isoflavonoid genis- tein was from ICN Biomedicals (Zoetermeer, The Netherlands). […] The (iso)flavonoids were dissolved as a stock solution of 40 mM in dimethyl sulphoxide (DMSO; Across Chimica, Belgium) and stored at -20C. Before experiments, 1:1 dilutions were made in ethanol, followed by a dilution in ethanol/water (1: 3; v/v) to the appropriate concentrations. The maximal concentration of DMSO and ethanol, which was also added to the controls, was 0.5% (v/v). Membrane filters OE67 were from Schleicher and Schuell (Dassel, Germany). Doxorubicin hydrochloride was from Laboratoire Roger Bellon (France). […] S1(MRP1) cells were cultured in the presence of G418 until 2-10 days before experiments. […] Cells were harvested by centrifugation (275 g, 5 min) and washed twice in phosphate-buffered saline. Subsequently, the cells were incubated in 100 mM potassium chloride (KCl), 5 mM magnesium chloride (MgCl2 ), 1 mM phenylmethylsulphonyl fluoride and 50 mM HEPES-KOH (pH 7.4) for 1 h at 0C, in order to allow the cells to swell. Then the cells were ultrasonicated at 20% of the maximum power of an MSE sonicator (Soniprep 150) for three bursts of 15 s. The suspension was centrifuged at 1500 g for 10 min. […] After centrifugation at 100 000 g for 60 min the interface was removed and washed in 100 mM KC1-50 mM HEPES-5 mM MgCl2 buffer (pH 7.4). The final membrane preparations were stored at -80C at a protein concentration of ~ 4 mg ml-1 . […] Vesicles were incubated in KCl-HEPES buffer (pH 7.4) at 37C (protein concentration ~ 0.25 mg ml-1 ), in the presence of 10 mM MgCl2 with or without 1 mM ATP and tritium-labelled DNP-SG. The reaction was stopped by adding ice-cold KCl-HEPES buffer. After rapid filtration, the filters were washed twice with KCl-HEPES buffer. The radioactivity on the filters was measured by liquid scintillation counting. […] Plasma membranes were incubated for 1 h in KCl-HEPES buffer (pH 7.4) at 37C, in the presence of 1 mM EGTA, 1 mM sodium azide and 0.1 mM ouabain, with or without 1 mM ATP. […] Plasma membranes from GLC4 cells (black bars) and GLC4 /ADR cells (white bars) were incubated with 10 nM DNP-SG in the absence or presence of the MIB6 antibody (MIB6) (10 g ml-1 ) or an MRP1 control antibody (10 g ml-1 ). […] In short, anti-MRP1 antibodies were tested for their capacity to inhibit DNP-SG transport into GLC4 /ADR inside-out plasma membrane vesicles.

GLC4 cells = experiment: Steady-state cellular [3H]daunorubicin accumulation in GLC4 cells; type: cell-based, human; conditions: GLC4; (iso)flavonoid 50 µM (μM); 0.5 M DNR, 75 min
GLC4/ADR cells = experiment: Steady-state cellular [3H]daunorubicin accumulation in GLC4/ADR cells; type: cell-based, human
GLC4 = experiment: Growth inhibition assay, GLC4; type: cell-based, human; conditions: for IC50: Homo sapiens
GLC4/ADR = experiment: Growth inhibition assay, GLC4/ADR; type: cell-based, human; conditions: for IC50: Homo sapiens, GLC-4/ADR
SW1573 = experiment: Growth inhibition assay, SW1573; type: cell-based; conditions: Homo sapiens, SW1573, 72 h, read-out: IC50 value
S1(MRP) = experiment: Growth inhibition assay, S1(MRP); type: cell-based, human
S1(1.1) = experiment: Growth inhibition assay, S1(1.1); type: cell-based; conditions: Homo sapiens, 72 h, read-out: IC50 value
cyclin-dependent kinases = tested on: cyclin-dependent kinases; design: method as in Losiewicz et al, 1996; conditions: ref Losiewicz et al, 1996; cited from earlier work
[1] = during continuous infusion, ref Senderowicz et al, 1998, Stinson et al; cited from earlier work

CN1CC[C@H](c2c(O)cc(O)c3c(=O)cc(-c4ccccc4Cl)oc23)[C@H](O)C1 [Flavopiridol, (-)cis-5,7-dihydroxy-2-(2-chlorophenyl)-8[4-(3-hydroxy-1-methyl)-piperidinyl]-4H-benzopyran-4-one]
Concentrations at which ATPase activity of GLC4/ADR membranes was significantly induced (MRP1 ATPase activity; GLC4/ADR membranes, lowest effective concentration and higher): ≥ 1 µM | Effect of GSH on (iso)flavonoid-induced MRP1 ATPase activity (MRP1 ATPase activity; GSH 0.5 mM or 5 mM, data not shown): no synergistic stimulation | Accumulation of daunorubicin, mean percentages of control (set at 100%) (GLC4 cells): 104% | Effect on accumulation of DNR in GLC4/ADR cells (GLC4/ADR cells; 50 µM (μM)): increased the accumulation of DNR | Lowest concentration tested, giving a significant increase of DNR accumulation (GLC4/ADR cells; GLC4/ADR): 100 nM | Difference of DNR accumulation from control (P < 0.05) (GLC4/ADR cells; GLC4/ADR, all tested flavopiridol concentrations (0.1, 1, 5), Figure 6): gave a significant difference | Concentrations at which daunorubicin accumulation is affected (GLC4/ADR cells; GLC4/ADR, only tested compound active in this range): below 1 μM | IC50 (GLC4; GLC4, 72 h, read-out: IC50 value): 0.045 µM | IC50 (GLC4; GLC4, read-out: IC50 value): > 1 µM | IC50 (GLC4; GLC4, read-out: IC50 values): > 1 µM | Growth inhibitory potency compared to genistein and kaempferol (GLC4; Table 3, all cell lines): about 100 fold | Resistance compared to GLC4 (GLC4/ADR; GLC4/ADR vs GLC4): 2.8 times | IC50 (GLC4/ADR; 72 h, read-out: IC50 value): 0.128 µM | IC50 (GLC4/ADR; read-out: IC50 value): > 1 µM | IC50 (GLC4/ADR; read-out: IC50 values): > 1 µM | IC50 (SW1573): 0.085 µM | IC50 (S1(MRP); Homo sapiens, S1(MRP), 72 h, read-out: IC50 value): 0.13 µM | Resistance compared to SW1573 (S1(MRP); S1(MRP) vs SW1573): 1.5 times | IC50 (S1(1.1)): 0.093 µM | Potency as inhibitor of cyclin-dependent kinases compared to genistein and quercetin (cyclin-dependent kinases): 250 fold | Steady-state plasma concentrations in humans [1]: 200 to 300 nM
